What was measured:
INS-1 cells = experiment: Rescue of INS-1 cells from IAPP-induced toxicity (CellTiter Blue); conditions: 13 μM IAPP; for rescue of IAPP-induced toxicity, co-addition: small molecule co-added 1:1, 48 h, n=24
Protocol: Cells were passaged on reaching ∼95% confluence (0.25% Trypsin-EDTA, Life Technologies), propagated and/or used in experiments. Cells used in experiments were pelleted and resuspended in fresh media with no Trypsin-EDTA.
Cell viability was measured colourimetrically using the CellTiter Blue (CTB, Promega, Madison, WI, USA) fluorescence-based assay. Cells were plated at a density 5,000 cells per well in 96-well plates (BD Biosciences, San Diego, CA). Peptide was directly introduced to each well after 48 h of culture and then further incubated for an additional 48 h. For time-dependent experiments, cells were incubated with peptide for the specified time points. After the incubation period, 20-μl CellTiter Blue reagent was added to each well and incubated at 37 °C and 5% CO2 for 2.5–3.5 h. Fluorescence of the resorufin product was measured on a FluoDia T70 fluorescence plate reader (Photon Technology International, Birmingham, NJ, USA). All wells included the same amount of water to account for different concentrations of peptide added to sample wells. Wells that included water vehicle but not peptide served as the negative control (0% toxic), and wells containing 10% DMSO were the positive control (100% toxic). Per cent toxicity was calculated using the following equation:
Each independent variable is the average of eight plate replicates from the negative control (<N>), positive control (<P>) and samples (<S>). Results presented for viability experiments are an average of three such experiments conducted independently on different days. Error bars represent the s.e.m.

IAPP = biological target: T1, IAPP (Homo sapiens, UniProt P10997); experiment: LUV-catalysed IAPP fibre formation kinetic assay (ThT fluorescence); assay type: biochemical; conditions: 10 μM IAPP, 1:1 IAPP:small molecule, 630 μM LUVs DOPG:DOPC 1:1; ND = no kinetics over time of observation
T1 construct: IAPP is a 37-residue peptide co-packaged with insulin in pancreatic β-cells; purchased Genscript; Elim Biopharmaceuticals
T1 sequence (P10997 34-70 limits assumed): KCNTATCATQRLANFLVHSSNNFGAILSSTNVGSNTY
Protocol: Unless otherwise stated, LUVs used in this work were prepared from a 1:1 mixture of DOPG/DOPC. The lyophilized mixture was hydrated in 100 mM KCl, 50 mM sodium phosphate and pH 7.4 for 20 min. A 20mg ml^−1 solution of lipid in buffer was passed 21 times through a polycarbonate membrane (pore diameter=100 nm). The phospholipid content of the final material was measured using a total phosphorous assay.
(§1) Amyloid reactions were conducted in buffer containing liposome (630 μM lipid) and 20 μM ThT in a black 96-well plate. This was followed by the addition of small molecule dissolved in dimethylsulphoxide (DMSO; final DMSO concentration=0.5%, v/v). Fibre formation was initiated by the addition of IAPP stock solution. The final volume in each well was 200 μl. Kinetics of fibrillation was monitored by ThT fluorescence (excitation 450 nm and emission 485 nm), using a FluoDia T70 fluorescence plate reader (Photon Technology International, Edison, NJ, USA). The data were blank subtracted and renormalized to the maximum intensity of reactions containing only IAPP. Each kinetic trace was fit to a sigmoidal form:
(§2) where I is the fluorescence intensity, t is time, and b, m and τ are dependent fitting variables. All samples were run at least in triplicate and error bars shown in the text represent ±1 s.d.

[1] = tested on: Src and its homologue, Abl; conditions: cited from earlier work
Text: Dynamic binding modes, such as conformational selection, are often observed in protein:ligand interactions. A recent example is the anti-cancer drug Gleevec[8]. Gleevec binds to structurally identical sites in Src and its homologue, Abl. […] It stands to reason that the internal degrees of freedom of ligands should be similarly exploitable. However, ligand dynamics are viewed unfavourably as a result of entropy loss on binding. The non-covalent and reversible stabili ...

[2] = IAPP fibre formation in solution without LUVs (ThT); assay type: physicochemical, human; conditions: 10 μM IAPP, no LUVs, at least triplicate, ±1 s.d.
Protocol: as §1, with “form: […]” for “form:”
as §2
Supplementary Figure 1: Kinetic profiles of IAPP self-assembly. a, Three representative kinetic profiles for a standard reaction of 10 µM IAPP catalysed by the presence of 630 µM LUVs (DOPG:DOPC, 1:1, 100 nm) (inset) A representative sigmoid fit (magenta) used to extract reaction midpoints, t50. b, Representative comparison of the kinetic profiles of (10 µM) IAPP fibrillation in the absence (black) and presence (red) of 630 µM LUVs. […]

| Compound | rescue of IAPP-induced toxicity, co-addition (INS-1 cells) | t50 / (t50 IAPP only), inhibition of LUV-catalysed fibre formation (IAPP) | difference in binding affinity between Src and Abl [1] | decrease of INS-1 viability (INS-1 cells; 48 h incubation) | reaction midpoint t50 of IAPP assembly into fibres in solution [2] |
| --- | --- | --- | --- | --- | --- |
| O=C(O[C@@H]1Cc2c(O)cc(O)cc2O[C@@H]1c1cc(O)c(O)c(O)c1)c1cc(O)c(O)c(O)c1 [EGCG, epigallocatechin gallate] | ineffective in rescuing toxicity | no detectable effect |  |  |  |
| Cc1ccc(NC(=O)c2ccc(CN3CCN(C)CC3)cc2)cc1Nc1nccc(-c2cccnc2)n1 [Gleevec] |  |  | > 1,000 fold |  |  |
| CC[C@H](C)[C@H](NC(=O)[C@H](C)NC(=O)CNC(=O)[C@H](Cc1ccccc1)NC(=O)[C@H](CC(N)=O)NC(=O)[C@H](CC(N)=O)NC(=O)[C@H](CO)NC(=O)[C@H](CO)NC(=O)[C@H](Cc1c[nH]cn1)NC(=O)[C@@H](NC(=O)[C@H](CC(C)C)NC(=O)[C@H](Cc1ccccc1)NC(=O)[C@H](CC(N)=O)NC(=O)[C@H](C)NC(=O)[C@H](CC(C)C)NC(=O)[C@H](CCCNC(=N)N)NC(=O)[C@H](CCC(N)=O)NC(=O)[C@@H](NC(=O)[C@H](C)NC(=O)[C@@H]1CSSC[C@H](NC(=O)[C@@H](N)CCCCN)C(=O)N[C@@H](CC(N)=O)C(=O)N[C@@H]([C@@H](C)O)C(=O)N[C@@H](C)C(=O)N[C@@H]([C@@H](C)O)C(=O)N1)[C@@H](C)O)C(C)C)C(=O)N[C@@H](CC(C)C)C(=O)N[C@@H](CO)C(=O)N[C@@H](CO)C(=O)N[C@H](C(=O)N[C@@H](CC(N)=O)C(=O)N[C@H](C(=O)NCC(=O)N[C@@H](CO)C(=O)N[C@@H](CC(N)=O)C(=O)N[C@H](C(=O)N[C@@H](Cc1ccc(O)cc1)C(N)=O)[C@@H](C)O)C(C)C)[C@@H](C)O [IAPP] |  |  |  | 78±8% | 18 ± 1.4 h |
| Oc1ccc(/C=C/c2cc(O)cc(O)c2)cc1 [resveratrol] | ineffective in rescuing toxicity | no detectable effect |  |  |  |
| acid fuchsin | ineffective in rescuing toxicity | no detectable effect |  |  |  |

From paper PMC4848510, “Foldamer-mediated manipulation of a pre-amyloid toxin” (Nature Communications, 2016)
